This is an account of results in patent publication US8999956B2, “N-[(het)arylalkyl)] pyrazole(thio)carboxamides and their heterosubstituted analogues” (Bayer Intellectual Property GmbH, priority 2010, dated 2015).

Molecules are shown by their SMILES. Like-named read-outs stand apart in the source and are kept apart here.

One data set has as its system Phakopsora pachyrhizi. The experiment in a line: In vivo protective test on Phakopsora pachyrhizi (soybeans). To be noted: Table N, 250 ppm of active ingredient, evaluated 11 days after inoculation.
Data set [1] concerns Blumeria graminis fsp. hordei. The experiment in a line: In vivo preventive test on Blumeria graminis (barley). To be noted: 500 ppm of active ingredient, evaluated 7 days after inoculation. The procedure, abridged:
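Active compound taken up in N,N-dimethylacetamide with alkylaryl polyglycol ether emulsifier, then diluted in water to the desired concentration. Young barley plants sprayed at the stated application rate; once the coating had dried, plants were dusted with Blumeria graminis f. sp. hordei spores.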

In a further data set the test system is Aspergillus parasiticus. Kind of data set: microbe, parasite or virus in culture. Format: cell-based.
The next data set concerns Alternaria solani. Kind of data set: In vivo preventive test on Alternaria solani (tomato). To be noted: 500 ppm of active ingredient, evaluated 7 days after inoculation. The procedure, abridged:
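Preventive set-up: Alternaria solani spores, as aqueous suspension, applied to young plants one day after spraying. Spray contained active compound formulated with N,N-dimethylformamide and emulsifier, water-diluted to the desired application rate.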

In the next data set the test system is Sphaerotheca fuliginea. The experiment in a line: In vivo preventive test on Sphaerotheca fuliginea (cucumber). To be noted: 500 ppm of active ingredient, evaluated 7 days after inoculation. The procedure, abridged:
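Young cucumber plants sprayed with compound (in DMF with alkylarylpolyglycolether emulsifier, diluted in water) at the stated application rate. Inoculated one day later with aqueous Sphaerotheca fuliginea spore suspension. Plants then held in greenhouse at approximately 23° C and approximately 70% relative humidity.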

The test system of another data set is Venturia inaequalis. The experiment in a line: In vivo preventive test on Venturia inaequalis (apple scab). To be noted: 100 ppm of active ingredient, evaluated 10 days after inoculation. The procedure, abridged:
(§1)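 Young plants sprayed preventively at the stated application rate with compound dissolved in acetone/N,N-dimethylacetamide plus alkylaryl polyglycol ether emulsifier and diluted with water to the desired concentration.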

A further data set deals with Fusarium graminearum. To be noted: in vivo.
The next data set has as its system Septoria tritici. The experiment in a line: In vivo preventive test on Septoria tritici (wheat). To be noted: 500 ppm of active ingredient, evaluated 21 days after inoculation. Summed up:
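Compound formulated in N,N-dimethylacetamide with alkylaryl polyglycol ether emulsifier and diluted in water to the stated rate. Young wheat plants sprayed preventively; after the deposit dried, they were inoculated with a Septoria tritici spore suspension.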

The nature of data set [2]: log P by HPLC on reversed-phase column (EEC Directive 79/831 Annex V.A8). In kind it is physicochemical. The procedure:
In table 1, the log P values were determined in accordance with EEC Directive 79/831 Annex V.A8 by HPLC (High Performance Liquid Chromatography) on a reversed-phase column (C18), using the method described below: Temperature: 40° C.; […]

The subject of the next data set is Uromyces appendiculatus. Kind of data set: In vivo preventive test on Uromyces appendiculatus (beans). To be noted: 100 ppm of active ingredient, evaluated 10 days after inoculation. The procedure, abridged: as §1
The subject of the next data set is Puccinia triticina. Kind of data set: In vivo preventive test on Puccinia triticina (wheat). To be noted: Table K, 500 ppm of active ingredient, evaluated 8 days after inoculation.
Data set [3] deals with aflatoxines produced by Aspergillus parasiticus. Kind of data set: microbe, parasite or virus in culture. Format: cell-based.
A further data set deals with Pyrenophora teres. Kind of data set: In vivo preventive test on Pyrenophora teres (barley). To be noted: 500 ppm of active ingredient, evaluated 7-9 days after inoculation. Summed up: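 Preventive test: young barley plants received a water-diluted spray of compound formulated with DMF solvent plus alkylaryl polyglycol ether emulsifier, at the stated rate. Inoculation with an aqueous spore suspension of Pyrenophora teres followed one day after spraying.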

A further data set has as its system Botrytis cinerea. The experiment in a line: In vivo preventive test on Botrytis cinerea (beans). The procedure, abridged: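 Young bean plants sprayed preventively with compound in acetone/dimethylacetamide/emulsifier diluted in water; after drying, each leaf inoculated with 2 agar pieces bearing Botrytis cinerea. Kept dark at 20° C, 100% humidity; lesion size scored at 2 days as % efficacy (0% = untreated, 100% = no disease).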

A further data set concerns Leptosphaeria nodorum. Kind of data set: In vivo preventive test on Leptosphaeria nodorum (wheat). To be noted: 500 ppm of active ingredient, evaluated 7-9 days after inoculation. Summed up:
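Plants were inoculated with aqueous L. nodorum spores one day after a protective spray. The spray contained the compound at the stated rate, as a water-diluted concentrate in N,N-dimethylacetamide plus alkylaryl polyglycol ether emulsifier.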

For the molecule `CC(CCc1ccccc1C(F)(F)F)N(C(=O)c1c(C(F)F)nn(C)c1F)C1CC1` (stereo not drawn) [Example 221], the Efficacy was 80% in the data set with Phakopsora pachyrhizi; 100% in data set [1]; 100% in the data set on Alternaria solani; 100% with Sphaerotheca fuliginea; 100% in the data set on Venturia inaequalis; 100% with Fusarium graminearum. The Efficacy with Septoria tritici is given as 100%; in the data set with Uromyces appendiculatus, 100%; in the data set with Puccinia triticina it was 100%; in the data set on Pyrenophora teres, 95%. The “% Inhibition of fungal growth at 50 μM” value with Aspergillus parasiticus amounted to 100%. In addition, the logP in [2] amounted to 4.09. The “% Inhibition of Aflatoxin at 50 μM” value in data set [3] worked out at 100%.
For the molecule `Cn1nc(C(F)F)c(C(=O)N(C2CC2)C2CCCCC2Oc2ccccc2)c1F` (stereo not drawn) [Example 244], the Efficacy came to 98% with Phakopsora pachyrhizi; 100% in data set [1]; 100% with Alternaria solani; 100% with Sphaerotheca fuliginea; 100% with Venturia inaequalis; 100% in the data set with Fusarium graminearum. The Efficacy with Septoria tritici is given as 100%; in the data set with Botrytis cinerea (500 ppm of active ingredient, lesion size 2 days after inoculation) it was “at least 85%”; in the data set on Botrytis cinerea (Table L4, dose 500 ppm, comparison with des-fluoro analogue), 88%; in the data set on Botrytis cinerea (Table L, 500 ppm of active ingredient, lesion size 2 days after inoculation), 88%; in the data set with Leptosphaeria nodorum, 95%; with Uromyces appendiculatus, 100%. The Efficacy with Puccinia triticina was 100%; in the data set on Pyrenophora teres it was 95%. The “% Inhibition of fungal growth at 50 μM” value in the data set on Aspergillus parasiticus (50 µM) stood at 82%. The same molecule came in with a lipophilicity (logP) in data set [2] of 3.89. Moreover, the “% Inhibition of Aflatoxin at 50 μM” value in [3] (50 µM) came to 99%.

The logP is the decadic logarithm of the partition coefficient of the neutral form, usually between octanol and water. A high value points to higher lipophilicity.
